Measured values reported in patent publication US10750743B2, “Pyridazinone herbicides” (E.I. DU PONT DE NEMOURS AND COMPANY, priority 2015, dated 2020).

How the values were obtained:
Format in all cases: in vivo
[1] = system: Foxtail, Green; test: Test A preemergence, directed soil spray, visual injury rating; settings: 0 is no effect, 100 is complete control
[2] = system: barnyardgrass (Echinochloa crus-galli); test: as above; settings: 0 is no effect, 100 is complete control
Method in brief: (§1)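 Seeds sown in a loam soil–sand blend received a directed preemergence soil spray of test chemical in a non-phytotoxic solvent mixture with surfactant. Postemergence plants were sprayed at 2 to 10 cm, one- to two-leaf stage. After approximately 10 d in greenhouse, injury was visually rated 0 (no effect) to 100 (complete control) against untreated controls.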

[3] = system: kochia (Kochia scoparia); test: as above; settings: 0 is no effect, 100 is complete control
Method in brief: as §1

[4] = system: pigweed (Amaranthus retroflexus); test: as above; settings: 0 is no effect, 100 is complete control
Method in brief: as §1

[5] = system: ragweed (common ragweed, Ambrosia elatior); test: as above; settings: 0 is no effect, 100 is complete control
Method in brief: as §1

[6] = system: ryegrass, It. (Italian ryegrass, Lolium multiflorum); test: as above; settings: 0 is no effect, 100 is complete control
Method in brief: as §1

[7] = system: barnyardgrass (Echinochloa crus-galli); test: Test B flooded paddy test, visual rating; settings: Flood, 250 g ai/ha, applied to paddy water, rated after 13 to 15 d
Method in brief: (§2)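 Plants at the 2-leaf stage were flooded to 3 cm above soil, and test compounds were applied directly into the paddy water, which was held at that depth throughout. After 13 to 15 d in a greenhouse, injury was rated visually against untreated controls on a 0–100 scale (0 no effect, 100 complete control).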

[8] = system: ducksalad (Heteranthera limosa); test: Test B flooded paddy test, visual rating; settings: Flood, 250 g ai/ha, applied to paddy water, rated after 13 to 15 d
Method in brief: as §2

[9] = system: rice (Oryza sativa); test: Test B flooded paddy test, visual rating; settings: Flood, 250 g ai/ha, applied to paddy water, rated after 13 to 15 d
Method in brief: as §2

[10] = system: sedge, umbrella (small-flower umbrella sedge, Cyperus difformis); test: Test B flooded paddy test, visual rating; settings: Flood, 250 g ai/ha, applied to paddy water, rated after 13 to 15 d
Method in brief: as §2

[11] = system: Foxtail, Green; test: Test A postemergence application, visual injury rating; settings: for Plant response rating (0 to 100 scale), Foxtail, Green: 31 g ai/ha, 0 is no effect, 100 is complete control; for Foxtail, Green plant response rating: 125 g ai/ha, 0 to 100 scale, 0 no effect, 100 complete control
Method in brief: as §1

[12] = system: barnyardgrass (Echinochloa crus-galli); test: as above; settings: 0 to 100 scale, 0 no effect, 100 complete control
Method in brief: as §1

[13] = system: blackgrass (Alopecurus myosuroides); test: as above; settings: 0 to 100 scale, 0 no effect, 100 complete control
Method in brief: as §1

[14] = system: corn (Zea mays); test: as above; settings: for Plant response rating (0 to 100 scale), Corn: 31 g ai/ha, 0 is no effect, 100 is complete control; for Corn plant response rating: 125 g ai/ha, 0 to 100 scale, 0 no effect, 100 complete control
Method in brief: as §1

[15] = system: galium (catchweed bedstraw, Galium aparine); test: as above; settings: for Plant response rating (0 to 100 scale), Galium: 31 g ai/ha, 0 is no effect, 100 is complete control; for Galium plant response rating: 125 g ai/ha, 0 to 100 scale, 0 no effect, 100 complete control
Method in brief: as §1

[16] = system: kochia (Kochia scoparia); test: as above; settings: for Plant response rating (0 to 100 scale), Kochia: 31 g ai/ha, 0 is no effect, 100 is complete control; for Kochia plant response rating: 125 g ai/ha, 0 to 100 scale, 0 no effect, 100 complete control
Method in brief: as §1

[17] = system: pigweed (Amaranthus retroflexus); test: as above; settings: for Plant response rating (0 to 100 scale), Pigweed: 31 g ai/ha, 0 is no effect, 100 is complete control; for Pigweed plant response rating: 125 g ai/ha, 0 to 100 scale, 0 no effect, 100 complete control
Method in brief: as §1

[18] = system: ragweed (common ragweed, Ambrosia elatior); test: as above; settings: for Plant response rating (0 to 100 scale), Ragweed: 31 g ai/ha, 0 is no effect, 100 is complete control; for Ragweed plant response rating: 125 g ai/ha, 0 to 100 scale, 0 no effect, 100 complete control
Method in brief: as §1

[19] = system: ryegrass, It. (Italian ryegrass, Lolium multiflorum); test: as above; settings: for Plant response rating (0 to 100 scale), Ryegrass, It.: 31 g ai/ha, 0 is no effect, 100 is complete control; for Ryegrass, It. plant response rating: 125 g ai/ha, 0 to 100 scale, 0 no effect, 100 complete control
Method in brief: as §1

[20] = system: wheat (Triticum aestivum); test: as above; settings: for Plant response rating (0 to 100 scale), Wheat: 31 g ai/ha, 0 is no effect, 100 is complete control; for Wheat plant response rating: 125 g ai/ha, 0 to 100 scale, 0 no effect, 100 complete control
Method in brief: as §1

Row | SMILES | Plant response rating (0 to 100 scale), Foxtail, Green ([1]; 31 g ai/ha) | Plant response rating (0 to 100 scale), Foxtail, Green ([1]; 125 g ai/ha) | Plant response rating (0 to 100 scale), Barnyardgrass ([2]; 31 g ai/ha) | Plant response rating (0 to 100 scale), Barnyardgrass ([2]; 125 g ai/ha) | Plant response rating (0 to 100 scale), Kochia ([3]; 31 g ai/ha) | Plant response rating (0 to 100 scale), Kochia ([3]; 125 g ai/ha) | Plant response rating (0 to 100 scale), Pigweed ([4]; 31 g ai/ha) | Plant response rating (0 to 100 scale), Pigweed ([4]; 125 g ai/ha) | Plant response rating (0 to 100 scale), Ragweed ([5]; 31 g ai/ha) | Plant response rating (0 to 100 scale), Ragweed ([5]; 125 g ai/ha) | Plant response rating (0 to 100 scale), Ryegrass, It. ([6]; 31 g ai/ha) | Plant response rating (0 to 100 scale), Ryegrass, It. ([6]; 125 g ai/ha) | Barnyardgrass plant response rating (0 to 100 scale, 0 is no effect, 100 is complete control) [7] | Ducksalad plant response rating (0 to 100 scale, 0 is no effect, 100 is complete control) [8] | Rice plant response rating (0 to 100 scale, 0 is no effect, 100 is complete control) [9] | Sedge, Umbrella plant response rating (0 to 100 scale, 0 is no effect, 100 is complete control) [10] | Plant response rating (0 to 100 scale), Foxtail, Green [11] | Foxtail, Green plant response rating [11] | Barnyardgrass plant response rating ([12]; 31 g ai/ha) | Barnyardgrass plant response rating ([12]; 125 g ai/ha) | further results
1 | Cn1nc(Cl)c(O)c(-c2cccc3c2nnn3C)c1=O [Compound 61] | 0 | 0 | 0 | 0 | 0 | 0 | 0 | 0 | 0 | 0 | 0 | 0 | 0 | 0 | 0 | 0 | 0 | 0 | 0 | 0 | Blackgrass plant response rating ([13]; 31 g ai/ha): 0; Blackgrass plant response rating ([13]; 125 g ai/ha): 0; Plant response rating (0 to 100 scale), Corn [14]: 0; Corn plant response rating [14]: 0; Plant response rating (0 to 100 scale), Galium [15]: 0; Galium plant response rating [15]: 0; Plant response rating (0 to 100 scale), Kochia [16]: 0; Kochia plant response rating [16]: 0; Plant response rating (0 to 100 scale), Pigweed [17]: 0; Pigweed plant response rating [17]: 0; Plant response rating (0 to 100 scale), Ragweed [18]: 0; Ragweed plant response rating [18]: 0; Plant response rating (0 to 100 scale), Ryegrass, It. [19]: 0; Ryegrass, It. plant response rating [19]: 0; Plant response rating (0 to 100 scale), Wheat [20]: 0; Wheat plant response rating [20]: 0
2 | CCC(=O)Oc1c(C)nn(C)c(=O)c1-c1c(Br)ccc2c1cnn2C [Compound 64] | 0 | 0 | 0 | 0 | 0 | 0 | 0 | 0 | 0 | 0 | 0 | 0 | 0 | 0 | 0 | 0 | 0 | 0 | 0 | 0 | Blackgrass plant response rating ([13]; 31 g ai/ha): 60; Blackgrass plant response rating ([13]; 125 g ai/ha): 0; Plant response rating (0 to 100 scale), Corn [14]: 0; Corn plant response rating [14]: 0; Plant response rating (0 to 100 scale), Galium [15]: 30; Galium plant response rating [15]: 50; Plant response rating (0 to 100 scale), Kochia [16]: 0; Kochia plant response rating [16]: 0; Plant response rating (0 to 100 scale), Pigweed [17]: 0; Pigweed plant response rating [17]: 0; Plant response rating (0 to 100 scale), Ragweed [18]: 0; Ragweed plant response rating [18]: 0; Plant response rating (0 to 100 scale), Ryegrass, It. [19]: 0; Ryegrass, It. plant response rating [19]: 0; Plant response rating (0 to 100 scale), Wheat [20]: 0; Wheat plant response rating [20]: 0
3 | Cc1nn(C)c(=O)c(-c2c(Br)ccc3c2cnn3C)c1O [Compound 65] | 0 | 0 | 0 | 0 | 0 | 0 | 0 | 0 | 0 | 0 | 0 | 0 | 0 | 0 | 0 | 0 | 0 | 0 | 0 | 0 | Blackgrass plant response rating ([13]; 31 g ai/ha): 0; Blackgrass plant response rating ([13]; 125 g ai/ha): 0; Plant response rating (0 to 100 scale), Corn [14]: 0; Corn plant response rating [14]: 0; Plant response rating (0 to 100 scale), Galium [15]: 0; Galium plant response rating [15]: 0; Plant response rating (0 to 100 scale), Kochia [16]: 0; Kochia plant response rating [16]: 0; Plant response rating (0 to 100 scale), Pigweed [17]: 0; Pigweed plant response rating [17]: 0; Plant response rating (0 to 100 scale), Ragweed [18]: 0; Ragweed plant response rating [18]: 0; Plant response rating (0 to 100 scale), Ryegrass, It. [19]: 0; Ryegrass, It. plant response rating [19]: 0; Plant response rating (0 to 100 scale), Wheat [20]: 0; Wheat plant response rating [20]: 0
